The values that follow come from US5604215A, “Steroid sulphatase inhibitors” (Imperial College of Science, Technology and Medicine, priority 1991, dated 1997).

Assay [1] concerns the target T1, steroid sulphatase (Steryl Sulphatase EC 3.1.6.2) in MCF-7 cells (Homo sapiens, UniProt P08842).
T1 construct: intact MCF-7 human breast cancer cells; endogenous in cells; host or cells: MCF-7 human breast cancer cells
T1 sequence (P08842 22-583): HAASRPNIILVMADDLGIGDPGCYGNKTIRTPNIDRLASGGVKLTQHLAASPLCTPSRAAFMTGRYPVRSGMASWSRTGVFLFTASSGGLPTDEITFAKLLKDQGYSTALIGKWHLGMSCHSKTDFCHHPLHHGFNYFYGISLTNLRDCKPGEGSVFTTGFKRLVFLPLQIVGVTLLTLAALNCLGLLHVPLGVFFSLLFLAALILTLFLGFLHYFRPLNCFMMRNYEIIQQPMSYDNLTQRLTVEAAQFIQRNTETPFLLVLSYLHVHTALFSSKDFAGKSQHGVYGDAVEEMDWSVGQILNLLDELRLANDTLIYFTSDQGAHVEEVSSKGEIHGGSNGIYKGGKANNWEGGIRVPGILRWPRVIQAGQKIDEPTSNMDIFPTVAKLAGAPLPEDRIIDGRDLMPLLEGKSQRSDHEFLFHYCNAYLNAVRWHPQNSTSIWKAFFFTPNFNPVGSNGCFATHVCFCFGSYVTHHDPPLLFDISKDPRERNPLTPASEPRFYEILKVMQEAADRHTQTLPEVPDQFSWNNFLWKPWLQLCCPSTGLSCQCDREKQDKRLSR
In words: Inhibition of Steroid Sulphatase Activity in MCF-7 cells (intact MCF-7 human breast cancer cells, [6,7-^3 H]oestrone-3-sulphate substrate). The note with it: for Steroid Sulphatase Activity in MCF-7 cells in the presence of oestrone-3-sulphonates: 10 μM, mean ± 1 S.D. n = 3, control 80.1 ± 3.3 (E1 -3-MeS: control 46.5 ± 2.3), *p ≤ 0.05 (E1 -3-BuS), **p ≤ 0.01 (EtS, CamS, MeS), E1 -3-MePhS: mean of 2 estimates, control 71.3; for inhibition at 10 µM: MCF7, Table II, inhibition over control incubations, read-out: % reduction over control (% inhibition), oestrone-3-sulphonates. The format is cell-based.

The target of assay [2] is T2, steroid sulphatase in placental microsomes (Homo sapiens, UniProt P08842).
T2 construct: Sulphatase-positive human placenta from normal term pregnancies; from tissue; host or cells: human term placenta (Obstetric Ward, St. Mary's Hospital, London), 2000 g supernatant of the homogenate
T2 sequence (P08842 22-583): T1 sequence (P08842 22-583)
In words: Inhibition of Steroid Sulphatase Activity in Placental Microsomes ([6,7-^3 H]oestrone-3-sulphate substrate). The format is biochemical. Particulars: 20 μM oestrone-3-sulphate, 100 μg/ml protein, 20 minutes, 37° C., calculated IC50. The procedure: Sulphatase-positive human placenta from normal term pregnancies (Obstetric Ward, St. Mary's Hospital, London) were thoroughly minced with scissors and washed once with cold phosphate buffer (pH 7.4, 50 mM) then re-suspended in cold phosphate buffer (5 ml/g tissue). Homogenisation was accomplished with an Ultra-Turrax homogeniser, using three 10 second bursts separated by 2 minute cooling periods in ice. Nuclei and cell debris were removed by centrifuging (4° C.) at 2000 g for 30 minutes and portions (2 ml) of the supernatent were stored at -20° C. The protein concentration of the supernatents was determined by the method of Bradford (Anal. Biochem., 72, 248-254 (1976)).
Incubations (1 ml) were carried out using a protein concentration of 100 μg/ml, substrate concentration of 20 μM [6,7-^3 H]oestrone-3-sulphate (specific activity 60 Ci/mmol from New England Nuclear, Boston, Mass., U.S.A.) and an incubation time of 20 minutes at 37° C. The following oestrone-3-phosphonates were added to separate samples at a range of concentrations individually adjusted to span the 50% inhibition level:
After incubation each sample was cooled and the medium (1 ml) was pipetted into separate tubes containing [^14 C]oestrone (7×10^3 dpm) (specific activity […] from Amersham International Radiochemical Centre, Amersham, U.K.). The mixture was shaken thoroughly for 30 seconds with toluene (5 ml). […] A portion (2 ml) of the organic phase was removed, evaporated and the ^3 H and ^14 C content of the residue determined by scintillation spectrometry. The mass of oestrone-3-sulphate hydrolysed was calculated from the ^3 H counts obtained (corrected for the volumes of medium and organic phase used, and for recovery of [^14 C]oestrone added) and the specific activity of substrate.
Results for steroid sulphatase activity are expressed in Table III as calculated IC50 values (i.e. the concentration of oestrone-3-phosphonate which produced 50% inhibition in relation to control). […]

Assay [3] concerns the target T1, steroid sulphatase (Steryl Sulphatase EC 3.1.6.2) in MCF-7 cells. In words: Inhibition of Steroid Sulphatase Activity in MCF-7 cells (intact MCF-7 human breast cancer cells, [6,7-^3 H]oestrone-3-sulphate substrate). Format: cell-based. Here is the method: Steroid sulphatase is defined as: Steryl Sulphatase EC 3.1.6.2.
Steroid sulphatase activity was measured in vitro using intact MCF-7 human breast cancer cells. This hormone dependent cell line is widely used to study the control of human breast cancer cell growth. […] Up to 30 replicate 25 cm^2 tissue culture flasks were seeded with approximately 1×10^5 cells/flask using the above medium. Cells were grown to 80% confluency and medium was changed every third day.
Intact monolayers of MCF-7 cells in triplicate 25 cm^2 tissue culture flasks were washed with Earle's Balanced Salt Solution (EBSS from ICN Flow, High Wycombe, U.K.) and incubated for […] at 37° C. with 5 pmol (7×10^5 dpm) [6,7-^3 H]oestrone-3-sulphate (specific activity 60 Ci/mmol from New England Nuclear, Boston, Mass., U.S.A.) in serum-free MEM (2.5 ml) together with 10 μM of each of four oestrone-3-phosphonates:
After incubation each flask was cooled and the medium (1 ml) was pipetted into separate tubes containing [^14 C]oestrone (7×10^3 dpm) (specific activity […] from Amersham International Radiochemical Centre, Amersham, U.K.). The mixture was shaken thoroughly for 30 seconds with toluene (5 ml). […] A portion (2 ml) of the organic phase was removed, evaporated and the ^3 H and ^14 C content of the residue determined by scintillation spectrometry. The mass of oestrone-3-sulphate hydrolysed was calculated from the ^3 H counts obtained (corrected for the volumes of the medium and organic phase used, and for recovery of [^14 C]oestrone added) and the specific activity of the substrate. […] The number of cell nuclei per flask was determined using a Coulter Counter after treating the cell monolayers with Zaponin.
Results are expressed as the mean ±1 S.D. of the total product (oestrone+oestradiol) formed during the incubation period (20 hours) calculated for 10^6 cells and as a percentage reduction (inhibition) over incubations containing no oestrone-3-phosphonate for values showing statistical significance. […]

Setting [4] is: Table IV, read-out: Steroid Sulphatase Activity in placental microsomes in the presence of oestrone-3-sulphonates (IC50).

What is called inhibition is the share of the control response that was lost under treatment. In general, IC50 refers to the concentration that inhibits the measured activity by half.

Read-outs that look alike come from different tables or passages of the source.

Turning to `CCCCS(=O)(=O)Oc1ccc2c(c1)CC[C@@H]1[C@@H]2CC[C@]2(C)C(=O)CC[C@@H]12` [E1-3-BuS, oestrone-3-n-butylsulphonate], in assay [1], the “Steroid Sulphatase Activity in MCF-7 cells in the presence of oestrone-3-sulphonates” value is given as 66.8 ± 3.3 fmol/20 hr/10^6 cells and the inhibition at 10 µM amounted to 16.6%.
For `CC1(C)C2CCC1(CS(=O)(=O)Oc1ccc3c(c1)CC[C@@H]1[C@@H]3CC[C@]3(C)C(=O)CC[C@@H]13)C(=O)C2` (stereo partly drawn) [E1-3-CamS, oestrone-3-camphorylsulphonate] the same measures were 62.7 ± 1.8 fmol/20 hr/10^6 cells and 21.7%.
As for `CCS(=O)(=O)Oc1ccc2c(c1)CC[C@@H]1[C@@H]2CC[C@]2(C)C(=O)CC[C@@H]12` [E1-3-EtS, oestrone-3-ethylsulphonate], in assay [1], the “Steroid Sulphatase Activity in MCF-7 cells in the presence of oestrone-3-sulphonates” value is 58.4 ± 1.9 fmol/20 hr/10^6 cells and the inhibition at 10 µM is 27.1%.
For the molecule `C[C@]12CC[C@@H]3c4ccc(O[PH](=O)O)cc4CC[C@H]3[C@@H]1CCC2=O` [E1-3-HP, oestrone-3-hydrogen-phosphonate], in assay [2] (Table III, read-out: Steroid Sulphatase Activity in placental microsomes in the presence of oestrone-3-phosphonates (IC50)), the IC50 is 5000 µM. Besides, the inhibition at 10 µM in assay [3] (MCF7, Table I, inhibition over incubations containing no oestrone-3-phosphonate, read-out: % reduction over control (% inhibition), oestrone-3-phosphonates) was 80.1%.
As to `Cc1ccc(S(=O)(=O)Oc2ccc3c(c2)CC[C@@H]2[C@@H]3CC[C@]3(C)C(=O)CC[C@@H]23)cc1` [E1-3-MePhS, oestrone-3-p-toluenesulphonate], in assay [2] (setting [4]), the IC50 was 130 µM. The inhibition at 10 µM in assay [1] was 90.5%.
With `C[C@]12CC[C@@H]3c4ccc(OS(C)(=O)=O)cc4CC[C@H]3[C@@H]1CCC2=O` [E1-3-MeS, oestrone-3-methylsulphonate], the IC50 in assay [2] (setting [4]) is 205 µM. Moreover, in assay [1], the “Steroid Sulphatase Activity in MCF-7 cells in the presence of oestrone-3-sulphonates” value is given as 21.3 ± 3.5 fmol/20 hr/10^6 cells and the inhibition at 10 µM came to 54.2%.
For the molecule `C[C@]12CC[C@@H]3c4ccc(OP(=O)(O)c5ccccc5)cc4CC[C@H]3[C@@H]1CCC2=O` [E1-3-PhP, oestrone-3-phenylphosphonate], in assay [3] (10 μM, Table I, inhibition over incubations containing no oestrone-3-phosphonate), the “% reduction over control (% inhibition), oestrone-3-phosphonates” value came to 70.3%. The “Steroid Sulphatase Activity in MCF-7 cells in the presence of oestrone-3-phosphonates” value in assay [3] (10 μM, mean ± 1 S.D. n = 3, control 46.5 ± 2.3, ***p ≤ 0.001, E1 -3-HP: mean of 2 estimates, control 71.3) is given as 13.8 ± 0.7 fmol/20 hr/10^6 cells.
